The nature of data set [1]: Stability in cellulo by UPLC/HRMS on 786-O cell line. In kind it is in vitro ADME. The following applies: 24h treatment at room temperature. From the text:
The stability of compound #1 was first assayed through UPLC/HRMS analyses in cellulo on the 786-O cell line.

A further data set concerns CAL33. The experiment in a line: XTT cell viability assay, CAL33. The following applies: Homo sapiens, CAL-33; XTT assay (48 h); standard deviation of 10%; read-out: EC50 (μM) Head and Neck CAL33. In kind it is cell-based. On the procedure:
(§1) Fifty microliters of sodium 3′-[1-phenylaminocarbonyl)-3,4-tetrazolium]-bis(4-methoxy-6-nitro) benzene sulfonic acid hydrate (XTT) reagent was added to each well. The assay is based on the cleavage of the yellow tetrazolium salt XTT to form an orange formazan dye by metabolically active cells. The absorbance of the formazan product, reflecting cell viability, was measured at 490 nm. Each assay was performed in quadruplicate.
(§2) Compounds #1-#14 have been assayed as potential anti-proliferative agents against a panel of human breast head and neck, and kidney tumor cells and hematological malignancies, selected on the basis of their aggressiveness (e.g. incurable triple-negative breast cancer cells: MDA-MB-231; kidney ccRCC cells: RCC4, A498 and 786-O and 786R; head and neck cancer cells: CAL33, CAL33RR, CAL27, and CAL27RR; acute myeloid cell lines: OCI-AML2, OCI-AML3, MolM13, and MolM14; myelodysplastic cell line: SM1; and chronic myeloid cell line: CML). All these cell lines share as common denominator the expression of CXCR1 and CXCR2. The EC50 values have been measured by a XTT colorimetric assay, and compared to those of SB-225002, used as a reference; the results are listed in Table 1.
A general note: Formazan colour is commonly taken as a measure of viable cells.

The test system of a further data set is 786-O. Nature of the data set: XTT cell viability assay, 786-O. In kind it is cell-based, human. On the procedure: A, B: Naive (786-O, A), and sunitinib-resistant (786-R, B) 786-O cells, were treated with compound #1 or sunitinib (1 to 10 μM) for 48 hr. Cell viability was measured by XTT assays;
D, E: 786-O (D), 786-R (E), were treated with 2.5 μM compound #1 or 2.5 μM sunitinib for 24 h to 96 h. The cells metabolism was measured by XTT assay;
as §1, §2

The test system of another data set is 786-O and 786-R cells. Nature of the data set: FACS analysis of death markers, sunitinib-sensitive and -resistant cells. In kind it is cell-based, human. The settings on record: 2.5 μM, 48 h, 786 and 786-R. On the procedure:
C: 786 and 786-R cells were treated with 2.5 μM compound #1 for 48 h. Cells were stained with the PI/annexin-V-fluo staining kit according to the manufacturer's indications. Histograms show both annexin-V^+/PI^− cells (blue bars) and annexin-V^+/PI^+ cells (red bars);
(§3) Apoptosis analysis: After stimulation, cells were washed with ice-cold PBS and were stained with the annexin-V-fluos staining kit (Roche, Meylan, France) according to the manufacturer's procedure. Fluorescence was measured by using the FL2 (AV) and FL3 (propidium iodide, PI) channels of a fluorescence-activated cell sorter apparatus (Calibur cytometer).
(In general: In flow cytometry, cells or beads pass a laser one at a time.)

The test system of the next data set is OCI-AML2. The experiment in a line: XTT cell viability assay, OCI-AML2. In kind it is cell-based, human. The following applies: Homo sapiens, OCI-AML2; XTT assay (48 h); standard deviation of 10%; read-out: EC50 (μM) AML OCI-AML2. How it is done: as §1, §2
The next data set concerns A498 cells. The experiment in a line: Tumor xenograft experiment (ectopic model of RCC). In kind it is in vivo, mice. On the procedure: (§4) Cells were lysed in buffer containing 3% SDS, 10% glycerol and 0.825 mM Na2HPO4. 30 to 50 μg of proteins were separated on 10% SDS-PAGE, transferred onto a PVDF membrane (Immobilon, Millipore, France) and then exposed to the appropriate antibodies. Proteins were visualized with the ECL system using horseradish peroxidase-conjugated anti-rabbit or anti-mouse secondary antibodies.
One microgram of total RNA was used for the reverse transcription, using the QuantiTect Reverse Transcription kit (QIAGEN, Hilden, Germany), with a blend of oligo (dT) and random primers to prime first-strand synthesis. SYBR master mix plus (Eurogentec, Liege, Belgium) was used for qPCR. The mRNA level was normalized to 36B4 mRNA.
Ectopic model of RCC: seven million A498 cells were injected subcutaneously into the flank of 5-week-old nude (nu/nu) female mice (Janvier, France). The tumor volume was determined with a caliper (v=L*1^2*0.5). When the tumor reached 100 mm^3, mice were treated five a week for 4 weeks, by gavage with placebo (dextrose water vehicle) or compound #1 (50 mg/kg). This study was carried out in strict accordance with the recommendations in the Guide for the Care and Use of Laboratory Animals. Our experiments were approved by the “Comite national institutionnel d′éthique pour l'animal de laboratoire (CIEPAL)”
Sections from blocks of formol-fixed and paraffin-embedded tumors were examined for immunostaining. Sections were incubated with monoclonal anti-Ki67 (clone MIB1, DAKO, Ready to use) antibodies. Biotinylated secondary antibody (DAKO) was applied and binding was detected with the substrate diaminobenzidine against a hematoxylin counterstain.
Mice were xenografted with the highly aggressive ccRCC cells (A498), which form highly vascularized tumors.

Data set [2] deals with phosphorylation of ERK and AKT. The experiment in a line: Immunoblotting of p-ERK and p-AKT in 786-O and 786-R. In kind it is cell-based, human. The settings on record: 2.5 μM, 1 to 48 h. On the procedure:
H: 786-O and 786-R were treated with 2.5 μM compound #1 for 1 to 48 h. p-ERK and p-AKT levels were determined by immunoblotting. ERK and AKT served as loading controls. *P<0.05; **P<0.01; ***P<0.001.
as §4
In general terms: Immunoblotting shows a protein as a band on a membrane.

In data set [3] the test system is healthy human fibroblasts (FHN). Nature of the data set: FACS analysis of cell death markers (AV, PI), healthy fibroblasts. In kind it is cell-based. The settings on record: 5 μM, 48 h. On the procedure:
FIG. 1: Observation by FACS analyses of early (Annexin AV) and late (Propidium Iodide, PI) apoptosis markers expressed by healthy and malignant cells after treatment with compounds #1 and #2 at 5 μM. CT: negative control.
as §3
To complete these XTT assays, malignant (ccRCC and hematological) and healthy (human fibroblasts FHN) cells have been grown with compounds #1 or #2, and after 48h the expression of cell death markers (AV and PI) has been quantified by FACS analyses (FIG. 1).

Another data set relates to caspase-3 activity. The experiment in a line: Caspase-3 activity assay. In kind it is cell-based, human. The settings on record: 2.5 μM, 48 hr, 786-O and 786-R. On the procedure:
F: Cells were treated with 2.5 and 5 μM compound #1, with 2.5 μM sunitinib for 48 hr. Cells were lysed in caspase buffer and caspase-3 activity was evaluated using 0.2 mM Ac-DEVD-AMC as substrates. Results expressed as arbitrary units (A.U.) and are means±Standard deviation of 3 independent experiments;
Caspase 3 activity was assessed in quadruplicates using z-DEVD-AMC as substrate and fluorescence were assessed.

As a reminder, the EC50 is the midpoint of the concentration-response curve. As to `O=C(Nc1cccc(Cl)c1)Nc1nc2ccc([N+](=O)[O-])cc2s1` [Compound #1, 1-(3-chlorophenyl)-3-(6-nitrobenzo[d]thiazol-2-yl)urea], the “degradation (stability in cellulo)” value in [1] is recorded as “No degradation”. The EC50 in the data set with CAL33 is 2 µM. In addition, the “time of treatment to total inhibition of proliferation” value in the data set on 786-O (786-O cells, 2.5 μM, XTT 24 h to 96 h) is “approximately 65 hours”. Also, in the data set with 786-O (Homo sapiens, 786-0, XTT assay (48 h), standard deviation of 10%, read-out: EC50 (μM) Kidney 786-O), the EC50 is 2 µM. Also, the “death markers (annexin-V/PI) in sensitive and resistant cells” value in the data set with 786-O and 786-R cells was “kills in a similar way sensitive and resistant”. Besides, the EC50 in the data set on OCI-AML2 came to 5 µM. Besides, the “reduction of the tumor weight” value in the data set on A498 cells (A498 xenograft, 50 mg/kg gavage, end of experiment) was “more than 35%”. The “reduction of tumor volume” value in the data set on A498 cells (A498 xenograft, 50 mg/kg gavage, end of experiment (day 70)) is given as “more than 65%”. In addition, in the data set on A498 cells (human, qPCR), the “mRNA level of CXCL5 in tumors” value is on record as “significantly decreased”, the “mRNA level of CXCL7 in tumors” value is listed as “significantly decreased”, the “mRNA level of CXCL8 in tumors” value is given as “significantly decreased” and the “mRNA level of VEGFA in tumors” value is “not those of VEGFA”. Besides, in the data set on A498 cells (immunoblotting), the “AKT phosphorylation in tumor lysates” value is “inhibits AKT” and the “ERK phosphorylation in tumor lysates” value is “not ERK”. In the data set on A498 cells (treated group, day 70), the “weight of the animals” value was “No weight loss”. In addition, the “labelling of the proliferation marker Ki-67” value with A498 cells (tumor immunostaining) is recorded as “significantly decreases”. Moreover, the “lowering of mRNA levels of murine CD31” value in the data set with A498 cells (tumors, qPCR) is recorded as “more than 75%”. In addition, the “phosphorylation of ERK and AKT” value in [2] was “inhibits the phosphorylation of ERK and AKT”. Also, in data set [3], the “apoptosis of healthy human fibroblasts (FHN)” value is on record as “no increased apoptosis over the control experiment”. Also, the caspase-3 activity entry with caspase-3 activity is “significantly strengthened”.

These data come from patent US20210380547A1, “UREA DERIVATIVES FOR TREATING AND/OR PREVENTING CANCER” (CENTRE NATIONAL DE LA RECHERCHE SCIENTIFIQUE, priority 2018, published 2021).
